Source: patent publication US20100239563A1 (priority 2001, published 2010)

Legend:
[1] = test system: influenza A virus strain WSN-HK
[2] = test system: influenza B virus strain Massachusetts/6/93
[3] = test system: influenza B viruses/Massachusetts/6/92 (B/Mass)
[4] = human, in vivo; cited from earlier work

Row | Compound | reduction of the number of newly formed infectious virus particles [1] | cytotoxic effect on the cells (MDCK cells) | reduction of the number of newly formed infectious virus particles [2] | titer of infectious virus particles over infection sequences [3] | MTD [4]
1 | N#CC(=C(N)Sc1ccccc1N)C(C#N)=C(N)Sc1ccccc1N [U0126, 1,4-diamino-2,3-dicyano-1,4-bis(2-aminophenylthio)butadiene] | approx. 80% | neither solvent nor inhibitor have a significant cytotoxic effect | approx. 90% | significant reduction of the influenza virus particles | –
2 | CN1CC[C@H](c2c(O)cc(O)c3c(=O)cc(-c4ccccc4Cl)oc23)[C@H](O)C1 [flavopiridol] | – | – | – | – | 50 mg/m^2/dx3
